Legend:
[1] = system: MOLM-14 F691L cells, FLT3 ITD and FLT3 F691L; assay: Cell proliferation assay (CellTiter-Glo), MOLM-14 F691L; type: cell-based; conditions: Homo sapiens, 72 h, 3d-Growth, GMean
Text: The FLT3 inhibitors may be assessed using the MOLM-14, Acute Myeloid Leukemia cell line that endogenously expresses FLT3 ITD or derivatives of the human FLT3 AML cell line which acquired the D835Y (activation loop) of F691L (gatekeeper) mutation after selection in escalating doses of the FLT3 Inhibitor AC220. FLT3 inhibitors may also be assessed using cells that are engineered to express mutant FLT3. For engineered cells, murine Ba/F3 cells were transfected with full-length FLT3 ITD/D835Y mutations. The parental BA/F3 cells are dependent upon Interleukin-3 (IL-3) for survival, and introduction of the FLT3 constructs rendered these cells dependent upon FLT3 kinase activity when cultured in the absences of IL-3. Engineered BA/F3 cell growth assays can be performed in either the […] of IL-3, to assess the compound inhibition of FLT3 or to detect the presence of off-target activity, respectively. Inhibitors of FLT3 kinase activity reduce or eliminate the FLT3 oncogenic signaling, resulting in reduced cell proliferation. This inhibition is measured as a function of compound concentration to asses IC50 values.
Cell lines used in proliferation assays are as follows in Table 3:
Cells were seeded at 1×10^4 cells per well of a 96 well cell culture plate in 50 μl of cell culture medium. Compounds were dissolved in DMSO, typically at a concentration of 0.5 mM and were serially diluted 1:3 for a total of eight points and added to the cells to final concentrations of […], 0.0041, 0.0014 and 0.00046 μM in 100 μl cell culture medium (final concentration 0.2% DMSO). […] The cells were incubated at 37° C., 5% CO2 for three days. CellTiter-Glo Buffer (Promega Cell Viability Assay catalog #G7573) and substrate were equilibrated to room temperature, and enzyme/substrate Recombinant Firefly Luciferase/Beetle Luciferin was reconstituted. The cell plates were equilibrated to room temperature for 30 minutes, then lysed by addition of an equivalent volume of the Celltiter-Glo Reagent. The plate was mixed for 10 minutes on a plate shaker to lyse the cells. The plates were read on a Tecan M1000 using Luminescence protocol modified to read 0.1 s per well. The luminescence reading assesses the ATP content, which correlates directly with cell number such that the reading as a function of compound concentration was used to determine the IC50 value.

FLT3-D835Y = molecular target: T1, FLT3-D835Y (Homo sapiens, UniProt P36888, D835Y); assay: AlphaScreen kinase assay with recombinant enzyme, FLT3-D835Y; type: biochemical; conditions: 8pt, GMean
T1 construct: purchased Invitrogen PV3967
T1 sequence (P36888 27-993 D835Y): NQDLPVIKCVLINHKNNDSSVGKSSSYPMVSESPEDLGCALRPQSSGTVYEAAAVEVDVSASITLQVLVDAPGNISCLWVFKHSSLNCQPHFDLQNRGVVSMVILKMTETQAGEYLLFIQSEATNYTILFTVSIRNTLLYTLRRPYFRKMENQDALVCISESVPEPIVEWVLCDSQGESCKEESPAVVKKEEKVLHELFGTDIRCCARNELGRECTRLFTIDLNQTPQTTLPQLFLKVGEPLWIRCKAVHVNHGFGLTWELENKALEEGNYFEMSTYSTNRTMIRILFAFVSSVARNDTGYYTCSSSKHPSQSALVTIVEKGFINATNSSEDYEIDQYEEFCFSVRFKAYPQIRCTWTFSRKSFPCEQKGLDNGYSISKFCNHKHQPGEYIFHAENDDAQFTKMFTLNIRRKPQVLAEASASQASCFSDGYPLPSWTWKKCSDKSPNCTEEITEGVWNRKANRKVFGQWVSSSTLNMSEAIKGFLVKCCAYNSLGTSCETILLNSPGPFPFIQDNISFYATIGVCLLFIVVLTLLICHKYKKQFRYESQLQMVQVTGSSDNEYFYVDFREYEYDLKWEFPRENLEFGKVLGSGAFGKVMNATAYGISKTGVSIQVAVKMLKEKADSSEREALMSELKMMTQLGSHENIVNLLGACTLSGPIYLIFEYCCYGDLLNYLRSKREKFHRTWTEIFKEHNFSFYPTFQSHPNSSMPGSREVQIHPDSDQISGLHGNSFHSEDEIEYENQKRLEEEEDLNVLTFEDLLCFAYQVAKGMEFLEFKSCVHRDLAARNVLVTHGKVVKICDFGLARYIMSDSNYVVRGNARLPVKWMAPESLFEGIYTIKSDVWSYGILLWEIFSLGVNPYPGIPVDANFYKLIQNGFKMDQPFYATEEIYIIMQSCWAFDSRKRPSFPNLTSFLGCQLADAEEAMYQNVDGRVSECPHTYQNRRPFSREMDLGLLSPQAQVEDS
Outline: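 Inhibition was measured as a drop in AlphaScreen signal arising from phosphotyrosine-bead capture of a biotinylated poly(Glu4-Tyr) peptide (30 nM) phosphorylated by recombinant kinase. For IC50 work the stated final concentration was 10 μM for the FLT3 mutants and 100 μM for c-KIT.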

| IC50 [1] [µM] | IC50 (FLT3-D835Y) [µM] | SMILES |
| --- | --- | --- |
| 0.0001 to 10 | 0.0001 to 10 | CN[C@@H]1CCN(C(=O)c2ccc(-c3cnc4[nH]c(-c5ccccc5)cc4c3)s2)C1 [Compound P-0106, [(3R)-3-(methylamino)pyrrolidin-1-yl]-[5-(2-phenyl-1H-pyrrolo[2,3-b]pyridin-5-yl)-2-thienyl]methanone] |
| 0.0001 to 10 | 0.0001 to 10 | O=S(=O)(NC1CC1)c1cccc(-c2cnc3[nH]c(-c4ccccc4)cc3c2)n1 [Compound P-0109, N-cyclopropyl-6-(2-phenyl-1H-pyrrolo[2,3-b]pyridin-5-yl)pyridine-2-sulfonamide] |
| 0.0001 to 10 | 0.0001 to 10 | N#CC1(NC(=O)c2cccc(-c3cnc4[nH]c(-c5ccccc5)cc4c3)n2)CC1 [Compound P-0111, N-(1-cyanocyclopropyl)-6-(2-phenyl-1H-pyrrolo[2.3-b]pyridin-5-yl]pyridine-2-carboxamide] |
| 0.0001 to 10 | 0.0001 to 10 | O=C(c1cccc(-c2cnc3[nH]c(-c4cnn(CC(F)(F)F)c4)cc3c2)n1)N1CCC(F)(F)C1 [Compound P-0112, (3,3-difluoropyrrolidin-1-yl)-[6-[2-[1-(2,2,2-trifluoroethyl)pyrazol-4-yl]-1H-pyrrolo[2,3-b]pyridin-5-yl]-2-pyridyl]methanone] |
| 0.0001 to 10 | 0.0001 to 10 | CC(C)(C#N)CNC(=O)c1cccc(-c2cnc3[nH]c(-c4cnn(CC(F)(F)F)c4)cc3c2)n1 [Compound P-0113, N-(2-cyano-2-methyl-propyl)-6-[2-[1-(2,2,2-trifluoroethyl)pyrazol-4-yl]-1H-pyrrolo[2,3-b]pyridin-5-yl]pyridine-2-carboxamide] |
| 0.0001 to 10 | 0.0001 to 10 | N#CC1(NC(=O)c2cccc(-c3cnc4[nH]c(-c5ccccc5)cc4c3)n2)CCC1 [Compound P-0114, N-(1-cyanocyclobutyl)-6-(2-phenyl-1H-pyrrolo[2,3-b]pyridin-5-yl)pyridine-2-carboxamide] |
| 0.0001 to 10 | 0.0001 to 10 | N#CC1(F)CCN(C(=O)c2cccc(-c3cnc4[nH]c(-c5ccccc5)cc4c3)n2)C1 (stereo not drawn) [Compound P-0115, 3-fluoro-1-[6-(2-phenyl-1H-pyrrolo[2,3-b]pyridin-5-yl)pyridine-2-carbonyl]pyrrolidine-3-carbonitrile] |
| 0.0001 to 10 | 0.0001 to 10 | CC(C)(C#N)NC(=O)c1cccc(-c2cnc3[nH]c(-c4ccccc4)cc3c2)n1 [Compound P-0118, N-(1-cyano-1-methyl-ethyl)-6-(2-phenyl-1H-pyrrolo[2,3-b]pyridin-5-yl)pyridine-2-carboxamide] |
| 0.0001 to 10 | 0.0001 to 10 | N#C[C@@H]1CCN(C(=O)c2cccc(-c3cnc4[nH]c(-c5ccccc5)cc4c3)n2)C1 [Compound P-0122, (3R)-1-[6-(2-phenyl-1H-pyrrolo[2,3-b]pyridin-5-yl)pyridine-2-carbonyl]pyrrolidine-3-carbonitrile] |
| 0.0001 to 10 | 0.0001 to 10 | CC(C)(C#N)CNC(=O)c1cccc(-c2cnc3[nH]c(C4=CCCCC4)cc3c2)n1 [Compound P-0123, N-(2-cyano-2-methyl-propyl)-6-[2-(cyclohexen-1-yl)-1H-pyrrolo[2,3-b]pyridin-5-yl]pyridine-2-carboxamide] |
| 0.0001 to 10 | 0.0001 to 10 | CC1(C)CC=C(c2cc3cc(-c4cccc(C(=O)N5CCC(C#N)C5)n4)cnc3[nH]2)CC1 (stereo not drawn) [Compound P-0131, 1-[6-[2-(4,4-dimethylcyclohexen-1-yl)-1H-pyrrolo[2,3-b]pyridin-5-yl]pyridine-2-carbonyl]pyrrolidine-3-carbonitrile] |
| 0.0001 to 10 | 0.0001 to 10 | N#CC1CCN(C(=O)c2cccc(-c3cnc4[nH]c(C5=CCOCC5)cc4c3)n2)C1 (stereo not drawn) [Compound P-0132, 1-[6-[2-(3,6-dihydro-2H-pyran-4-yl)-1H-pyrrolo[2,3-b]pyridin-5-yl]pyridine-2-carbonyl]pyrrolidine-3-carbonitrile] |
|  | 0.0001 to 10 | CC(C)(C#N)CNC(=O)c1cccc(-c2cnc3[nH]c(-c4ccnc(C5CC5)c4)cc3c2)n1 [Compound P-0152, N-(2-cyano-2-methyl-propyl)-6-[2-(2-cyclopropyl-4-pyridyl)-1H-pyrrolo[2,3-b]pyridin-5-yl]pyridine-2-carboxamide] |
|  | 0.0001 to 10 | COc1cc(-c2cc3cc(-c4cccc(C(=O)NCC(C)(C)C#N)n4)cnc3[nH]2)ccn1 [Compound P-0154, N-(2-cyano-2-methyl-propyl)-6-[2-(2-methoxy-4-pyridyl)-1H-pyrrolo[2,3-b]pyridin-5-yl]pyridine-2-carboxamide] |
|  | 0.0001 to 10 | Cn1cc(-c2cc3cc(-c4cccc(C(=O)NCC(C)(C)C#N)n4)cnc3[nH]2)ccc1=O [Compound P-0155, N-(2-cyano-2-methyl-propyl)-6-[2-(1-methyl-6-oxo-3-pyridyl)-1H-pyrrolo[2,3-b]pyridin-5-yl]pyridine-2-carboxamide] |
|  | 0.0001 to 10 | CC(C)(C#N)CNC(=O)c1cccc(-c2cnc3[nH]c(C4=CCSCC4)cc3c2)n1 [Compound P-0159, N-(2-cyano-2-methyl-propyl)-6-[2-(3,6-dihydro-2H-thiopyran-4-yl)-1H-pyrrolo[2,3-b]pyridin-5-yl]pyridine-2-carboxamide] |
|  | 0.0001 to 10 | Cc1cc(-c2cc3cc(-c4cccc(C(=O)NC(C)(C)C#N)n4)cnc3[nH]2)cnn1 [Compound P-0163, N-(1-cyano-1-methyl-ethyl)-6-[2-(6-methylpyridazin-4-yl)-1H-pyrrolo[2,3-b]pyridin-5-yl]pyridine-2-carboxamide] |
|  | 0.0001 to 10 | C#Cc1cc2cc(-c3cccc(C(=O)NC(C)(C)C#N)n3)cnc2[nH]1 [Compound P-0175, N-(1-cyano-1-methyl-ethyl)-6-(2-ethynyl-1H-pyrrolo[2,3-b]pyridin-5-yl)pyridine-2-carboxamide] |
|  | 0.0001 to 10 | Cn1cncc1C#Cc1cc2cc(-c3cccc(C(=O)NC(C)(C)C#N)n3)cnc2[nH]1 [Compound P-0177, N-(1-cyano-1-methyl-ethyl)-6-[2-[2-(3-methylimidazol-4-yl)ethynyl]-1H-pyrrolo[2,3-b]pyridin-5-yl]pyridine-2-carboxamide] |
|  | 0.0001 to 10 | CC(C)(NC(=O)c1cccc(-c2cnc3[nH]c(C4=CCN(C(=O)C5CC5)C4)cc3c2)n1)C(N)=O [Compound P-0179, N-(2-amino-1,1-dimethyl-2-oxo-ethyl)-6-[2-[1-(cyclopropanecarbonyl)-2,5-dihydropyrrol-3-yl]-1H-pyrrolo[2,3-b]pyridin-5-yl]pyridine-2-carboxamide] |
|  | 0.0001 to 10 | CC(C)(C#N)NC(=O)c1cccc(-c2cnc3[nH]c(-c4ccc(C5CC5)cc4)cc3c2)n1 [Compound P-0189, N-(1-cyano-1-methyl-ethyl)-6-[2-(4-cyclopropylphenyl)-1H-pyrrolo[2,3-b]pyridin-5-yl]pyridine-2-carboxamide] |

Reference: patent US9938273B2 (Plexxikon Inc., priority 2015, dated 2018)
